Legend:
[1] = system: 60 cancer cell lines; experiment: NCI-60 one-dose screen (10 μM); format: cell-based; conditions: Homo sapiens; one dose of 10 μM, mean over 60 cancer cell lines; read-out: Mean Growth Percent (MGP)
Description: Additionally, the mean of the growth percentages (MGP) of each compound against all the 60 cancer cell lines is also reported, which is used as one of the selection criteria to continue with tests at five concentration doses.

[2] = Hemolytic activity, spectrophotometric; format: cell-based, human; conditions: human, human red blood cells (huRBC), 5% hematocrit, 200 μg/mL, 37 °C
[3] = system: MOLT-4; experiment: cells; conditions: Homo sapiens, MOLT-4, 48 h
[4] = system: RPMI-8226; experiment: cells; conditions: Homo sapiens, RPMI-8226, 48 h; for CC50: read-out: LC50
[5] = system: A549/ATCC; experiment: cells; conditions: Homo sapiens, A549, 48 h; for CC50: read-out: LC50
[6] = system: EKVX; experiment: cells; conditions: Homo sapiens, 48 h; for CC50: read-out: LC50
[7] = system: HOP-62; experiment: cells; conditions: Homo sapiens, HOP-62, 48 h; for CC50: read-out: LC50
[8] = system: NCI-H322M; experiment: cells; conditions: Homo sapiens, 48 h; for CC50: read-out: LC50
[9] = system: NCI-H522; experiment: cells; conditions: Homo sapiens, NCI-H522, 48 h; for CC50: read-out: LC50
[10] = system: COLO 205; experiment: cells; conditions: Homo sapiens, COLO 205, 48 h; for CC50: read-out: LC50
[11] = system: HCC-2998; experiment: cells; conditions: Homo sapiens, HCC 2998, 48 h; for CC50: read-out: LC50
[12] = system: HCT-116; experiment: cells; conditions: Homo sapiens, HCT-116, 48 h; for CC50: read-out: LC50
[13] = system: HCT-15; experiment: cells; conditions: Homo sapiens, HCT-15, 48 h; for CC50: read-out: LC50
[14] = system: HT29; experiment: cells; conditions: Homo sapiens, HT-29, 48 h; for CC50: read-out: LC50
[15] = system: KM12; experiment: cells; conditions: Homo sapiens, KM12, 48 h; for CC50: read-out: LC50
[16] = system: SW-620; experiment: cells; conditions: Homo sapiens, SW-620, 48 h; for CC50: read-out: LC50
[17] = system: SF-539; experiment: cells; conditions: Homo sapiens, SF-539, 48 h; for CC50: read-out: LC50, SF-539, 48 h
[18] = system: SNB-75; experiment: cells; conditions: Homo sapiens, SNB-75, 48 h; for CC50: read-out: LC50
[19] = system: U251; experiment: cells; conditions: Homo sapiens, U-251, 48 h; for GI50: U251, 48 h; for CC50: read-out: LC50
[20] = system: MALME-3M; experiment: cells; conditions: Homo sapiens, 48 h; for CC50: read-out: LC50
[21] = system: M14; experiment: cells; conditions: Homo sapiens, M14, 48 h; for CC50: read-out: LC50
[22] = system: SK-MEL-28; experiment: cells; conditions: Homo sapiens, SK-MEL-28, 48 h; for CC50: read-out: LC50
[23] = system: OVCAR-8; experiment: cells; conditions: Homo sapiens, OVCAR-8, 48 h; for CC50: read-out: LC50
[24] = system: SK-OV-3; experiment: cells; conditions: Homo sapiens, SK-OV-3, 48 h; for CC50: read-out: LC50
[25] = system: ACHN; experiment: cells; conditions: Homo sapiens, 48 h; for CC50: read-out: LC50
[26] = system: CAKI-1; experiment: cells; conditions: Homo sapiens, CAKI-1, 48 h; for CC50: read-out: LC50
[27] = system: RXF 393; experiment: cells; conditions: Homo sapiens, RXF 393, 48 h
[28] = system: UO-31; experiment: cells; conditions: Homo sapiens, UO-31, 48 h; for CC50: read-out: LC50
[29] = system: PC-3; experiment: cells; conditions: Homo sapiens, PC-3, 48 h; for CC50: read-out: LC50
[30] = system: DU-145; experiment: cells; conditions: Homo sapiens, DU-145, 48 h; for CC50: read-out: LC50
[31] = system: HS 578T; experiment: cells; conditions: Homo sapiens, 48 h; for CC50: read-out: LC50
[32] = system: BT-549; experiment: cells; conditions: Homo sapiens, BT-549, 48 h; for CC50: read-out: LC50
[33] = system: T-47D; experiment: cells; conditions: Homo sapiens, T47D, 48 h; for CC50: read-out: LC50
[34] = system: MDA-MB-468; experiment: cells; conditions: Homo sapiens, MDA-MB-468, 48 h; for CC50: read-out: LC50

Work on CN(C)c1nc(NCCNS(=O)(=O)c2ccc(C3=Nc4c(N)nc(N)nc4NC(c4ccc(F)cc4)C3)cc2)nc(Nc2ccc(F)cc2)n1 (stereo not shown) [31f] yielded an activity at 10 µM [1] of 37.1%, a hemolysis at 24 h, 200 µg/mL [2] of 2.4% and a GI50 [3] of 2.45 µM. For the same molecule, the GI50 [4] was 5.25 µM, the CC50 [4] was greater than 100 µM and the GI50 [5] was greater than 100 µM. It also gave a CC50 [5] greater than 100 µM, a GI50 [6] of 5.17 µM and a CC50 [6] greater than 100 µM. It also gave a GI50 [7] of 96 µM, a CC50 [7] greater than 100 µM and a GI50 [8] greater than 100 µM. It also gave a CC50 [8] greater than 100 µM, a GI50 [9] of 34.8 µM and a CC50 [9] greater than 100 µM. The GI50 [10] was 11.8 µM, the CC50 [10] was greater than 100 µM and the GI50 [11] was 4.22 µM. For the same molecule, the CC50 [11] was greater than 100 µM, the GI50 [12] was 4.54 µM and the CC50 [12] was greater than 100 µM. It also gave a GI50 [13] greater than 100 µM, a CC50 [13] greater than 100 µM and a GI50 [14] of 3.88 µM. It also gave a CC50 [14] greater than 100 µM, a GI50 [15] of 4.69 µM and a CC50 [15] greater than 100 µM. It also gave a GI50 [16] of 8.27 µM, a CC50 [16] greater than 100 µM and a GI50 [17] of 3.89 µM. The CC50 [17] was greater than 100 µM, the GI50 [18] was 2.53 µM and the CC50 [18] was 74 µM. The GI50 [19] was 6.35 µM, the CC50 [19] was greater than 100 µM and the GI50 [20] was 6.28 µM. For the same molecule, the CC50 [20] was greater than 100 µM, the GI50 [21] was 3.84 µM and the CC50 [21] was 25.3 µM. The GI50 [22] was 15.7 µM, the CC50 [22] was greater than 100 µM and the GI50 [23] was 12 µM. The CC50 [23] was greater than 100 µM, the GI50 [24] was greater than 100 µM and the CC50 [24] was greater than 100 µM. For the same molecule, the GI50 [25] was greater than 100 µM, the CC50 [25] was greater than 100 µM and the GI50 [26] was 6.5 µM. The CC50 [26] was greater than 100 µM, the GI50 [27] was 2.48 µM and the GI50 [28] was greater than 100 µM. For the same molecule, the CC50 [28] was greater than 100 µM, the GI50 [29] was 5.04 µM and the CC50 [29] was greater than 100 µM. It also gave a GI50 [30] of 52 µM, a CC50 [30] greater than 100 µM and a GI50 [31] of 5.7 µM. It also gave a CC50 [31] greater than 100 µM, a GI50 [32] of 3.26 µM and a CC50 [32] of 18.2 µM. The GI50 [33] was 4.86 µM, the CC50 [33] was greater than 100 µM and the GI50 [34] was 2.15 µM. For the same molecule, the CC50 [34] was 6.24 µM.
Work on CN(C)c1nc(NCCNS(=O)(=O)c2ccc(C3=Nc4c(N)nc(N)nc4NC(c4ccc(C(F)(F)F)cc4)C3)cc2)nc(Nc2ccc(F)cc2)n1 (stereo not shown) [31g] yielded an activity at 10 µM [1] of 6.81%, a hemolysis at 24 h, 200 µg/mL [2] of 3% and a GI50 [3] of 2.74 µM. It also gave a CC50 ([3]; read-out: LC50) of 86 µM, a GI50 [4] of 4 µM and a CC50 [4] of 86 µM. It also gave a GI50 [5] of 55 µM, a CC50 [5] of 86 µM and a GI50 [6] of 5.52 µM. The CC50 [6] was 86 µM, the GI50 [7] was 31.4 µM and the CC50 [7] was 86 µM. It also gave a GI50 [8] of 42.5 µM, a CC50 [8] of 86 µM and a GI50 [9] of 17.8 µM. For the same molecule, the CC50 [9] was 44.8 µM, the GI50 [10] was 9.73 µM and the CC50 [10] was 21.8 µM. It also gave a GI50 [11] of 4.73 µM, a CC50 [11] of 25.9 µM and a GI50 [12] of 5.1 µM. For the same molecule, the CC50 [12] was 86 µM, the GI50 [13] was 55.1 µM and the CC50 [13] was 86 µM. The GI50 [14] was 4.88 µM, the CC50 [14] was 18.3 µM and the GI50 [15] was 6.14 µM. The CC50 [15] was 86 µM, the GI50 [16] was 14.3 µM and the CC50 [16] was 86 µM. For the same molecule, the GI50 [17] was 6.22 µM, the CC50 [17] was 24.7 µM and the GI50 [18] was 2.13 µM. For the same molecule, the CC50 [18] was 86 µM, the GI50 [19] was 5.52 µM and the CC50 [19] was 86 µM. For the same molecule, the GI50 [20] was 11.3 µM, the CC50 [20] was 24.2 µM and the GI50 [21] was 7.87 µM. It also gave a CC50 [21] of 86 µM, a GI50 [22] of 15 µM and a CC50 [22] of 86 µM. The GI50 [23] was 26.1 µM, the CC50 [23] was 86 µM and the GI50 [24] was greater than 86 µM. For the same molecule, the CC50 [24] was greater than 86 µM, the GI50 [25] was greater than 86 µM and the CC50 [25] was greater than 86 µM. For the same molecule, the GI50 [26] was 36.8 µM, the CC50 [26] was 86 µM and the GI50 [27] was 2.57 µM. For the same molecule, the CC50 ([27]; read-out: LC50) was 18.8 µM, the GI50 [28] was greater than 86 µM and the CC50 [28] was greater than 86 µM. It also gave a GI50 [29] of 4.37 µM, a CC50 [29] of 86 µM and a GI50 [30] of 38.5 µM. It also gave a CC50 [30] of 86 µM, a GI50 [31] of 9.03 µM and a CC50 [31] of 86 µM. It also gave a GI50 [32] of 11.8 µM, a CC50 [32] of 32.6 µM and a GI50 [33] of 12 µM. The CC50 [33] was 86 µM, the GI50 [34] was 2.67 µM and the CC50 [34] was 11.7 µM.

— article PMC11012124, “Synthesis of Novel Triazine-Based Chalcones and 8,9-dihydro-7H-pyrimido[4,5-b][1,4]diazepines as Potential Leads in the Search of Anticancer, Antibacterial and Antifungal Agents” (International Journal of Molecular Sciences, 2024)
